{"source": "BindingDB's records for doi:10.1016/j.bmcl.2007.10.101", "about": "(Solvay Pharmaceuticals, 2008)", "target": "Neuronal acetylcholine receptor subunit alpha-4 (Rattus norvegicus, UniProt P09483)", "sequence (P09483 whole entry)": "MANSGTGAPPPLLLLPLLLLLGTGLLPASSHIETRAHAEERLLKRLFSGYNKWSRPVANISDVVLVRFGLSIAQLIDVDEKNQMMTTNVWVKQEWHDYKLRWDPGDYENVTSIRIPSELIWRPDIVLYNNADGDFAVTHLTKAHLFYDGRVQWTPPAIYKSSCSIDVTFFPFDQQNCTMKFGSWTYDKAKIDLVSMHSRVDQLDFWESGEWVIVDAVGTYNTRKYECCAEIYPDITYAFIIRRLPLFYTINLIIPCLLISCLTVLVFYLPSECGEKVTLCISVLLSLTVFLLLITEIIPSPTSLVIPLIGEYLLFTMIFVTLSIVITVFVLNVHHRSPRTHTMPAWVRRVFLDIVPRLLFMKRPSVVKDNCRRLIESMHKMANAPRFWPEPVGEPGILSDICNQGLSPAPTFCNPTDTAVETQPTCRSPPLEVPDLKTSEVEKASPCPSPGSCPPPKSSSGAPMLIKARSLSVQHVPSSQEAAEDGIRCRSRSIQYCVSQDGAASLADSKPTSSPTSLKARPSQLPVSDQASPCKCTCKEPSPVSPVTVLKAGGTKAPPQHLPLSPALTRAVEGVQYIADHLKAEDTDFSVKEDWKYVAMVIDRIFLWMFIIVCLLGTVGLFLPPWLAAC"}
{"compound": "c1cnc2[nH]c(C3CCCNC3)cc2c1", "note": "(stereo unspecified) [CAS_24759729]", "values": [{"measurement": "Ki", "result": "> 10", "unit": "µM"}]}
